Laboratory results from patent US20170334919A1, “2-((4-AMINO-3-(3-FLUORO-5-HYDROXYPHENYL)-1H-PYRAZOLO[3,4-D]PYRIMIDIN-1 -YL)METHYL)-3-(2-(TRIFLUORO-MET HYL)BENZYL)QUINAZOLIN-4(3H)-ONE DERIVATIVES AND THEIR USE AS PHOSPHOINOSITIDE 3-KINASE INHIBITORS” (RESPIVERT LTD., priority 2013, published 2017).
Where two headings read alike, the source gives them in different places.

Key:
[1] = test system: neutrophils from COPD patients; test: CXCL8 release from neutrophils obtained from COPD patients; assay type: cell-based; conditions: Homo sapiens, Neutrophil; read-out: REC50, TNFα-induced CXCL8 in neutrophils from COPD patients
Description: The effects of treatment on CXCL8 release from neutrophils obtained from COPD patients were evaluated by an ELISA assay. All patients were recruited by Quintiles Limited (London, UK), and blood samples were delivered to Respivert Ltd. This study was approved by the local Ethics Committee, and all subjects gave written informed consent. Whole blood (30 mL) was mixed gently with ACD (5 mL; comprising: 7.36 g citric acid, 14.71 g sodium citrate, 9.91 g dextrose in 250 ml sterile, double distilled water) and 6% dextran (15 mL; diluted in 0.9% NaCl) to remove the red blood cells. The tubes were incubated at RT for 45 min, and the supernatant (white cell rich fraction) was then collected, leaving the red blood cells.
This fraction was centrifuged (10 min at 1200 rpm, 4° C.) with low braking. The supernatant was aspirated and the pellet was re-suspended in ice-cold, sterile double distilled H2O (10 mL), and 0.6 M KCl (4 mL) was added 30 seconds later. […]
Neutrophils were pre-incubated with test compounds or with DMSO vehicle for 1 hr and then stimulated with TNFα (10 ng/mL). Cell free supernatant was collected at 3 hr after TNFα stimulation, and CXCL8 was measured by ELISA using DuoSet ELISA development kit (R&D systems, Abingdon, UK). The IC50 values reported were determined from concentration-inhibition curves using XL-Fit (IDBS, Guildford, UK).

[2] = test system: poly-I:C-induced cell accumulation in mice airways; test: Poly-I:C-induced cell accumulation in mice; assay type: in vivo, A/J mice
Description: Specific pathogen-free A/J mice (males, 5 weeks old) were dosed with poly (I:C)-LMW (1 mg/mL, 40 μL) (InvivoGen, San Diego, Calif., USA) intranasally twice daily for 3 days under anaesthasia (3% isoflurane). Test substances were dosed intra-nasally (50 μL in 10% DMSO/isotonic saline vehicle) 2 hr before each poly-I:C treatment. At 24 hr after the last poly-I:C challenge, animals were anesthetized, the trachea was cannulated and bronchial alveolar lavage (BAL) was obtained by instilling into and then withdrawing from the lungs, isotonic saline (100 mL/kg). Total cell numbers in the BALF samples were measured using a haemocytometer under a phase-contrast microscope.
The proportions of alveolar macrophages and neutrophils were determined by FACS analysis using anti-mouse MOMA2-FITC (macrophage) or anti-mouse 7/4-FITC (neutrophil). Cells were suspended in PBS and incubated with anti-MOMA2-FITC (2 μg/mL, Catalogue no SM065F, Acris Antibodies GmbH, Herford, Germany) or anti-7/4-FITC (2 μg/mL, Catalogue no CL050F, Acris Antibodies GmbH, Herford, Germany) for 30 min at 30° C., and then counterstained with propidium iodide (2 μg/mL) to allow exclusion of necrotic cells. The cells were washed with PBS, and transferred to FACS tubes. Samples was set in a flow cytometer (ALTRA II; Beckman Coulter Japan, Tokyo, Japan), and a single-parameter FL2 [PMT2] (FITC) histogram with log x-axis was plotted to illustrate relative intensity of FITC. Data files were stored for subsequent analysis using Kaluza analysis software (ver. 1.2) to calculate the proportion of each cell type.

PBMCs = test: Cytostim-induced cytokine production in PBMCs; assay type: cell-based; conditions: Homo sapiens, PBMC
Description: As a means of assessing PI3Kδ-dependent cell function, cytostim-induced IL-4, IL-5, IL-13 and IFNγ production in PBMCs were evaluated by Luminex multiplex assay. All healthy volunteers were recruited by Quintiles Limited (London, UK), and blood samples were delivered to Respivert Ltd. This study was approved by the local Ethics Committee, and all subjects gave written informed consent.
PBMC suspensions (200 μL; 2×10^6 cells/mL) were added to a 96-well plate. Cells were treated with either test compounds in neat DMSO or DMSO as vehicle (2 μL) and incubated at RT for 1 hr. Cytostim (Miltentyi Biotec, Surrey, UK) was introduced at a ratio of 1:50 and the cells were incubated for 20 hr (37° C.; 5% CO2). Plates were spun at 500×g for 5 min and the supernatant collected. A high sensitivity cytokine magnetic bead kit (#HSCYTMAG-60SK, Millipore, Watford, UK) was used to measure the four analytes (IL-4, IL-5, IL-13 and IFNγ) by Luminex as follows: The magnetic antibody beads were multiplexed and incubated in a 96-well plate with standard, media only or sample (50 μL) overnight with shaking at 4° C. After washing twice with Millipore wash buffer provided in the kit using a magnetic plate washer, the beads were incubated for 1 hr with detection antibody (50 μL) with shaking at RT. A streptavidin-phycoerythrin solution provided in the kit was added for 30 min with shaking at RT. After washing, the beads were re-suspended in sheath fluid (150 μL) and analysed immediately. The Luminex system was set up to count 50 beads and the amount of each analyte in the supernatant was calculated against a standard curve. The IC50 values were determined from concentration-inhibition curves using XL-Fit (IDBS, Guildford, UK)

d-U937 cells = test: MTT assay, cell viability; assay type: cell-based, human; conditions: 10 μg/mL
Description: PMA-differentiated U937 cells were pre-incubated with test compound (10 μg/mL) or vehicle for 4 hr in 5% FCS or 10% FCS for 24 hr. The supernatant was replaced with new media (200 μL) and MTT stock solution (10 μL, 5 mg/mL) was added to each well. After 1 hr incubation, the media were removed, 200 μL of DMSO was added to each well and the plates were shaken lightly for 1 hr prior to reading the absorbance at 550 nm. The percentage loss of cell viability was calculated for each well relative to vehicle (0.5% DMSO)-treatment.

[3] = 0.002 mg/mL intra-nasal + Poly I:C
[4] = 0.02 mg/mL intra-nasal + Poly I:C
[5] = 0.2 mg/mL intra-nasal + Poly I:C

`COCCOCCOCC#Cc1cccc2nc(Cn3nc(-c4cc(O)cc(F)c4)c4c(N)ncnc43)n(Cc3ccccc3C(F)(F)F)c(=O)c12` [Compound (I), 2-((4-Amino-3-(3-fluoro-5-hydroxyphenyl)-1H-pyrazolo[3,4-d]pyrimidin-1-yl)methyl)-5-(3-(2-(2-methoxyethoxy)ethoxy)prop-1-yn-1-yl)-3-(2-(trifluoromethyl)benzyl)quinazolin-4(3H)-one] was tested, and the EC50 [1] was 2.2 nM, the Cell numbers in BALF, Macrophages, % inhibition [2, 3] was 49% and the “Cell numbers in BALF, Neutrophils, % inhibition” value [2, 3] was 0.3 (43) %. For the same compound, the “Cell numbers in BALF, Macrophages, % inhibition” value [2, 4] was 0.3 (69) %, the Cell numbers in BALF, Neutrophils, % inhibition [2, 4] was 65% and the “Cell numbers in BALF, Macrophages, % inhibition” value [2, 5] was 0.3 (79) %. The “Cell numbers in BALF, Neutrophils, % inhibition” value [2, 5] was 0.2 (77) %, the “potency versus compound A, poly-I:C-induced macrophage and neutrophil accumulation into BALF” value ([2]; direct comparison, FIG. 1) was “significantly greater potency than compound A” and the IC50 (PBMCs; read-out: IC50, Cytostim-induced IFNγ in PBMCs) was 13.8 nM. For the same compound, the IC50 (PBMCs; read-out: IC50, Cytostim-induced IL-4 in PBMCs) was under 1.4 nM, the IC50 (PBMCs; read-out: IC50, Cytostim-induced IL-5 in PBMCs) was under 1.4 nM and the IC50 (PBMCs; read-out: IC50, Cytostim-induced IL-13 in PBMCs) was under 1.4 nM. For the same compound, the “Cell Viability MTT Assay in d-U937 cells at 4 hr” value (d-U937 cells; 4 hr) was “−ve (−ve indicates a value of <30% inhibition at 10 μg/mL)” and the “Cell Viability MTT Assay in d-U937 cells at 24 hr” value (d-U937 cells; 24 hr) was “−ve (−ve indicates a value of <30% inhibition at 10 μg/mL)”.
